Literature values, collected in patent publication US20200037638A1, “FORMULATIONS” (Molecular Infusions, LLC., priority 2017, published 2020).

In the case of CCCCCc1cc(O)c2c(c1)OC(C)(C)[C@@H]1CCC(C)=C[C@@H]21 [dronabinol, Δ9-tetrahydrocannabinol], the “Duration of appetite stimulant effect” value (after administration) is given as no less than 24 h, the “Duration of action for psychoactive effects” value (after oral administration) is given as 4 to 6 h and the Onset of action (after oral administration) is given as 0.5 to 1 h. For the same molecule, the “Peak effect (time)” value (after oral administration) was 2 to 4 h, the Absorbed (after single oral doses) was 90 to 95% and the “Administered dose reaching the systemic circulation” value (oral, first pass hepatic metabolism and high lipid solubility) was 10 to 20%.
